Molecular target: T1, α4β1 integrin (Homo sapiens, UniProt P05556+P13612)
T1 construct: endogenous in cells; host or cells: Ramos cells
Assay: Inhibition of adhesion of calcein AM-labeled Ramos cells to CS1 (fibronectin) peptide-conjugated ovalbumin
Format: cell-based
Details: Ramos cell adhesion to CS1-conjugated ovalbumin, 30 minutes at 37° C.
Description: The ability of compounds of the present invention to inhibit binding is determined by a procedure in which a 26-amino acid peptide containing the CS1 sequence of fibronectin with an N-terminal Cys ([…]) was coupled to maleimide activated ovalbumin. Bovine serum albumin (BSA) and CS1 conjugated ovalbumin were coated onto 96-well polystyrene plates at 0.5 mg/ml in TBS (50 mM Tris, pH 7.5; 150 mM NaCl) at 4° C. for 16 hours. The plates were washed three times with TBS and blocked with TBS containing 3% BSA at room temperature for 4 hours. Blocked plates were washed three times in binding buffer (TBS; 1 mM MgCl2; 1 mM CaCl2; 1 mM MnCl2) prior to assay. Ramos cells fluorescently labeled with calcein AM were resuspended in binding buffer (10^7 cells/ml) and diluted 1:2 with same buffer with or without compound. The cells were added immediately to the wells (2.5×10^5 cells/well) and incubated for 30 minutes at 37° C. Following three washes with binding buffer, adherent cells were lysed and quantitated using a fluorometer. IC50 is defined as the dose required to give 50% inhibition. MS in Table 3 stands for Mass Spec. nd stands for not determined in the Tables. A stands for inhibition in Table 2, and the percent inhibition indicates the inhibition of cell adhesion when compound is included in the assay at a concentration of 100 μM. The lower the IC50 value and the greater the percentage of inhibition, the more efficient the compound is at prevention of cell adhesion.

T1 sequence (P13612 34-1032): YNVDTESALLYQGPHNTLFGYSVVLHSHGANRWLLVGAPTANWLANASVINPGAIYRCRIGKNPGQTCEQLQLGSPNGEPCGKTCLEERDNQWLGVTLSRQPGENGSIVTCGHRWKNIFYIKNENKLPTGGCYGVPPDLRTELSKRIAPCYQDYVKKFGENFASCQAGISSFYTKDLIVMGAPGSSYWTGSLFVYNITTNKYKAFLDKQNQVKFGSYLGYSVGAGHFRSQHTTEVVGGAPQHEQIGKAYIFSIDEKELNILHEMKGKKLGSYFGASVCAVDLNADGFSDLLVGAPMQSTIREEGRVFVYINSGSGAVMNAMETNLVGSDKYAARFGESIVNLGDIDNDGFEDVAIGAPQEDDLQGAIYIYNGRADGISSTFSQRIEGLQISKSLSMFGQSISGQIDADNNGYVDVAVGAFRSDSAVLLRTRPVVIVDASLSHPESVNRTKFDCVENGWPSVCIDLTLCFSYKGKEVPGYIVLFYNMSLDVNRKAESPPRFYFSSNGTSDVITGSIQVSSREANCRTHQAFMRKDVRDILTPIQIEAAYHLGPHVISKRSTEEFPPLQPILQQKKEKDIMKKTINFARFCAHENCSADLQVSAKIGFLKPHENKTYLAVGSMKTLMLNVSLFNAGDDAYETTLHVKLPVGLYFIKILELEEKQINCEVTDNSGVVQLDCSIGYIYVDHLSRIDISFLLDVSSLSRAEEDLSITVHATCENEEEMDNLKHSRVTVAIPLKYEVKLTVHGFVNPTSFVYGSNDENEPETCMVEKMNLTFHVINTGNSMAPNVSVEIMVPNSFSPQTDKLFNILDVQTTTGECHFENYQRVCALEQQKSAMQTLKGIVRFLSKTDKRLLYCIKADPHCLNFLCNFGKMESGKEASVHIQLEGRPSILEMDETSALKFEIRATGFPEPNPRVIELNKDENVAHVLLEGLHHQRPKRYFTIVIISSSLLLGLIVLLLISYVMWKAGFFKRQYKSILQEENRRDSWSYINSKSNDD
T1 sequence (P05556 21-798): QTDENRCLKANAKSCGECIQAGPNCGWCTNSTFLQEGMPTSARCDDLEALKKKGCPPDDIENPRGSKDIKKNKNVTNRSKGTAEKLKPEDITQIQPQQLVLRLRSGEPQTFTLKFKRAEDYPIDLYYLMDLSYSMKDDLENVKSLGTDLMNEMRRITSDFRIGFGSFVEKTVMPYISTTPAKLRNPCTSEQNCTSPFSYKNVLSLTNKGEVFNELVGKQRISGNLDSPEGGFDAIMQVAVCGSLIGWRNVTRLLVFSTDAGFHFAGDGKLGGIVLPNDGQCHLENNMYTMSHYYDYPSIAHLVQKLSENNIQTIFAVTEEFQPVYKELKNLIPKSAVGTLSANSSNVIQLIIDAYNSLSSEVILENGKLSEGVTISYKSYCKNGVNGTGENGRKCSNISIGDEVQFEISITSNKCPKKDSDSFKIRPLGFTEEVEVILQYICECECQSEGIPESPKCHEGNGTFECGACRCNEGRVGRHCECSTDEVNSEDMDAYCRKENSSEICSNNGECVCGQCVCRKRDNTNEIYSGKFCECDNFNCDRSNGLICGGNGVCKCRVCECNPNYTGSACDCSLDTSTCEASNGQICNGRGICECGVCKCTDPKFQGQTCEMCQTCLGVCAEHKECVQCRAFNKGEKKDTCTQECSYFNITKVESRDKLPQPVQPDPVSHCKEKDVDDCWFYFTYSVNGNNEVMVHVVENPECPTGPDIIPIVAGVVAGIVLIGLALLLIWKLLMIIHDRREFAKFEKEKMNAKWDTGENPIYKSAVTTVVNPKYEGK

Structure (SMILES)	IC50 (Table 4)	IC50 (Table 3)	also measured
CCCCC(C(=O)N[C@@H](CC(=O)O)c1ccc(Cl)c(OC(C)C)c1)n1cc(C)cc(Cc2ccccc2)c1=O (stereo partly drawn) [(3S)-3-{[2-(3-benzyl-5-methyl-2-oxopyridin-1(2H)-yl)hexanoyl]amino}-3-(4-chloro-3-isopropoxyphenyl)propanoic acid]	25 nM		
CCCCC(C(=O)N[C@@H](CC(=O)O)c1ccc(OC)c(C)c1)n1cc(C)cc(Cc2ccccc2)c1=O (stereo partly drawn) [(3S)-3-{[2-(3-benzyl-5-methyl-2-oxopyridin-1(2H)-yl)hexanoyl]amino}-3-(4-methoxy-3-methylphenyl)propanoic acid]	9 nM		
CCC(C(=O)N[C@@H](CC(=O)O)c1ccc2c(c1)OCO2)n1cccc(Cc2ccccc2)c1=O (stereo partly drawn) [(3S)-3-(1,3-benzodioxol-5-yl)-3-({2-[2-oxo-3-(phenylmethyl)-1(2H)-pyridinyl]butanoyl}amino)propanoic acid]		30 nM	
CCCCC(C(=O)N[C@@H](CC(=O)O)c1ccc2ccn(C)c2c1)n1cc(C)cc(Cc2ccccc2)c1=O (stereo partly drawn) [(3S)-3-(1-methyl-1H-indol-6-yl)-3-({2-[5-methyl-2-oxo-3-(phenylmethyl)-1(2H)-pyridinyl]hexanoyl}amino)propanoic acid]	10 nM		
CCCCC(C(=O)N[C@@H](CC(=O)O)c1ccc(F)cc1)n1cc(C)cc(Cc2ccccc2)c1=O (mixture of isomers) [Compound 14, (3S)-3-((2R,S)-2-(3-benzyl-5-methyl-2-oxo-1(2H)-pyridinyl)hexanoylamino)-3-(4-fluorophenyl)propanoic acid]			IC50 (Table 1): 150 nM
CCCCC(C(=O)N[C@@H](CC(=O)O)c1ccc2c(c1)OCO2)n1nc(C)cc(Cc2ccccc2)c1=O (stereo partly drawn) [(3S)-3-(1,3-benzodioxol-5-yl)-3-({2-[3-methyl-6-oxo-5-(phenylmethyl)-1(6H)-pyridazinyl]hexanoyl}amino)propanoic acid]		60 nM	
Cc1cc(C(C(=O)N[C@@H](CC(=O)O)c2cccc(OC(C)C)c2)c2ccccc2)c(=O)n(Cc2ccccc2)c1 (stereo partly drawn) [(3S)-3-{3-[(1-methylethyl)oxy]phenyl}-3-({2-[5-methyl-2-oxo-1-(phenylmethyl)-1,2-dihydro-3-pyridinyl]-2-phenylacetyl}amino)propanoic acid]	10 nM		
CCCC[C@@H](C(=O)N[C@@H](CC(=O)O)c1ccc(OC)c(F)c1)n1cc(C)cc(Cc2ccccc2)c1=O [(3S)-3-{[(2S)-2-(3-benzyl-5-methyl-2-oxopyridin-1(2H)-yl)hexanoyl]amino}-3-(3-fluoro-4-methoxyphenyl)propanoic acid]	17 nM		
CCCC[C@@H](C(=O)N[C@@H](CC(=O)O)c1ccc2c(c1)OCO2)N1CC(=O)N(Cc2cccs2)c2ccccc2C1=O [(3S)-3-(1,3-benzodioxol-5-yl)-3-({(2S)-2-[2,5-dioxo-1-(2-thiophenylmethyl)-1,2,3,5-tetrahydro-4H-1,4-benzodiazepin-4-yl]hexanoyl}amino)propanoic acid]		1500 nM	
O=C(O)C[C@H](NC(=O)C1(n2cccc(Cc3ccccc3)c2=O)CCCCC1)c1ccc2c(c1)OCO2 [(3S)-3-(1,3-Benzodioxol-5-yl)-3-[({1-[2-oxo-3-(phenylmethyl)-1(2H)-pyridinyl]cyclohexyl}carbonyl)amino]propanoic acid]		50000 nM	
CCCCC(C(=O)N[C@@H](CC(=O)O)c1ccc2c(c1)OCO2)n1cc(C)cc(Cc2ccccc2Cl)c1=O (stereo partly drawn) [(3S)-3-(1,3-benzodioxol-5-yl)-3-({2-[3-[(2-chlorophenyl)methyl]-5-methyl-2-oxo-1(2H)-pyridinyl]hexanoyl}amino)propanoic acid]		10 nM	
CCCCC(C(=O)N[C@@H](CC(=O)O)c1cc(C)c(OC)c(C)c1)n1cc(C)cc(Cc2ccccc2)c1=O (stereo partly drawn) [(3S)-3-{[2-(3-benzyl-5-methyl-2-oxopyridin-1(2H)-yl)hexanoyl]amino}-3-(4-methoxy-3,5-dimethylphenyl)propanoic acid]	140 nM		
CCCCC(C(=O)N[C@@H](CC(=O)O)c1ccc(OC(F)(F)F)cc1)n1cc(C)cc(Cc2ccccc2)c1=O (stereo partly drawn) [(3S)-3-{[2-(3-benzyl-5-methyl-2-oxopyridin-1(2H)-yl)hexanoyl]amino}-3-[4-(trifluoromethoxy)phenyl]propanoic acid]	27 nM		
CCCCC(C(=O)N[C@@H](CC(=O)O)c1cc(C)cc(C)c1)n1cc(C)cc(Cc2ccccc2)c1=O (stereo partly drawn) [(3S)-3-{[2-(3-benzyl-5-methyl-2-oxopyridin-1(2H)-yl)hexanoyl]amino}-3-(3,5-dimethylphenyl)propanoic acid]	52 nM		
CCCCC(C(=O)N[C@@H](CC(=O)O)c1cccc(OCCC)c1)n1cc(C)cc(Cc2cccc(Cl)c2)c1=O (stereo partly drawn) [(3S)-3-({2-[3-(3-chlorobenzyl)-5-methyl-2-oxopyridin-1(2H)-yl]hexanoyl}amino)-3-(3-propoxyphenyl)propanoic acid]	23 nM		
CCCCC(C(=O)N[C@@H](CC(=O)O)c1ccc2c(c1)OCO2)n1cc(C)cc(Cc2ccc(F)cc2)c1=O (mixture of isomers) [Compound 17, (3S)-3-(1,3-benzodioxol-5-yl)-3-((2R,S)-2-(3-(4-fluorobenzyl)-5-methyl-2-oxo-1(2H)-pyridinyl)hexanoylamino)propanoic acid]			IC50 (Table 1): 60 nM
CCCCC(C(=O)N[C@@H](CC(=O)O)c1ccccc1)n1cc(C)cc(Cc2ccc3ccccc3c2)c1=O (stereo partly drawn) [(3S)-3-({2-[5-methyl-3-(2-naphthalenylmethyl)-2-oxo-1(2H)-pyridinyl]hexanoyl}amino)-3-phenylpropanoic acid]	30 nM		
CCCCC(C(=O)N[C@@H](CC(=O)O)c1cccc(C(F)F)c1)n1cc(C)cc(Cc2ccccc2)c1=O (stereo partly drawn) [(3S)-3-[3-(difluoromethyl)phenyl]-3-({2-[5-methyl-2-oxo-3-(phenylmethyl)-1(2H)-pyridinyl]hexanoyl}amino)propanoic acid]	20 nM		
CCCCC(C(=O)N[C@@H](CC(=O)O)c1cccc(OC(F)(F)F)c1)n1cc(C)cc(Cc2ccccc2)c1=O (stereo partly drawn) [(3S)-3-{[2-(3-benzyl-5-methyl-2-oxopyridin-1(2H)-yl)hexanoyl]amino}-3-[3-(trifluoromethoxy)phenyl]propanoic acid]	40 nM		
CCCCC(C(=O)N[C@@H](CC(=O)O)c1ccc2c(c1)CCO2)n1cc(C)cc(Cc2ccccc2)c1=O (mixture of isomers) [Compound 12, (3S)-3-((2R,S)-2-(3-benzyl-5-methyl-2-oxo-1(2H)-pyridinyl)hexanoylamino)-3-(2,3-dihydro-1-benzofuran-5-yl)propanoic acid]			IC50 (Table 1): 40 nM
CCCCC(C(=O)N[C@@H](CC(=O)O)c1ccc(C)c(C)c1)n1cc(C)cc(Cc2ccccc2)c1=O (stereo partly drawn) [(3S)-3-{[2-(3-benzyl-5-methyl-2-oxopyridin-1(2H)-yl)hexanoyl]amino}-3-(3,4-dimethylphenyl)propanoic acid]	130 nM		
CCCC[C@@H](C(=O)N[C@@H](CC(=O)O)c1ccc2c(c1)OCO2)n1c(=O)c2ccccc2n(Cc2ccccc2)c1=O [(3S)-3-(1,3-benzodioxol-5-yl)-3-({(2S)-2-[2,4-dioxo-1-(phenylmethyl)-1,4-dihydro-3(2H)-quinazolinyl]hexanoyl}amino)propanoic acid]		100 nM	
CCCCC(C(=O)N[C@@H](CC(=O)O)c1ccc2c(c1)OCO2)N1C(=O)N(Cc2ccccc2)Cc2ccccc21 (stereo partly drawn) [(3S)-3-(1,3-benzodioxol-5-yl)-3-({2-[2-oxo-3-(phenylmethyl)-3,4-dihydro-1(2H)-quinazolinyl]hexanoyl}amino)propanoic acid]		400 nM	
CCCCC(C(=O)N[C@@H](CC(=O)O)c1ccc(-c2ccc(OC)cc2)cc1)n1cc(C)cc(Cc2ccccc2)c1=O (stereo partly drawn) [(3S)-3-{[2-(3-benzyl-5-methyl-2-oxopyridin-1(2H)-yl)hexanoyl]amino}-3-(4′-methoxy-1,1′-biphenyl-4-yl)propanoic acid]	300 nM		
CCCC[C@@H](C(=O)N[C@@H](CC(=O)O)c1ccc2c(c1)OCO2)n1cc(C)cc(Cc2ccccc2)c1=O [Compound 10]			IC50 (Table 1): 3 nM
CCCCC(C(=O)N[C@@H](CC(=O)O)c1cc(F)cc(F)c1)n1cc(C)cc(Cc2ccccc2)c1=O (stereo partly drawn) [(3S)-3-{[2-(3-benzyl-5-methyl-2-oxopyridin-1(2H)-yl)hexanoyl]amino}-3-(3,5-difluorophenyl)propanoic acid]	25 nM		
CCCC[C@@H](C(=O)N[C@@H](CC(=O)O)c1ccc2c(c1)OCO2)N1CC(=O)N(Cc2cccs2)[C@@H](Cc2ccccc2)C1=O [(3S)-3-(1,3-benzodioxol-5-yl)-3-({(2S)-2-[(3S)-2,5-dioxo-3-(phenylmethyl)-4-(2-thiophenylmethyl)tetrahydro-1(2H)-pyrazinyl]hexanoyl}amino)propanoic acid]		6000 nM	
CCCCC(C(=O)N[C@@H](Cc1ccccc1)C(=O)O)n1cc(C)cc(Cc2ccccc2)c1=O (stereo partly drawn) [(2S)-2-({2-[5-methyl-2-oxo-3-phenylmethyl)-1(2H)-pyridinyl]hexanoyl}amino)-3-phenylpropanoic acid]	> 10000 nM		
CCCCC(C(=O)N[C@@H](CC(=O)O)c1ccc2c(c1)OCO2)n1cccc(NCc2cccs2)c1=O (stereo partly drawn) [(3S)-3-(1,3-benzodioxol-5-yl)-3-({2-[2-oxo-3-[(2-thiophenylmethyl)amino]-1(2H)-pyridinyl]hexanoyl}amino)propanoic acid]		1300 nM	
